Measurements published in ChEMBL document CHEMBL1143051, “Novel cationic lipophilic peptides for oligodeoxynucleotide delivery” (Bioorg Med Chem, 2007).
Square brackets hold non-standard residues; d marks the D form. Peptide text beside a SMILES is read from it. ξ: configuration not given here. ξGly(decyl) = CCCCCCCCCCC(N)C(=O)O

How the values were obtained:
[1] = Inhibition of IL2 production in antigen stimulated mouse 2B4.11 T hybridoma cells at 5 uM; type: functional
[2] = Toxicity assessed as induction of haemolysis in rat erythrocytes at 1 mM after 30 mins; type: cell-based, Erythrocyte; settings: read-out: Activity
[3] = Inhibition of IL2 production in antigen stimulated mouse 2B4.11 T hybridoma cells at 25 uM; type: functional
[4] = Apparent permeability across human Caco-2 cells; type: ADME, cell-based
[5] = Inhibition of IL2 production in antigen stimulated mouse 2B4.11 T hybridoma cells at 10 uM; type: functional
[6] = Effect on transfection efficacy in human D407 cells assessed as reduction of hVEGF expression after 24 hrs by ELISA; type: functional
[7] = Effect on transfection efficacy in human D407 cells assessed as reduction of hVEGF expression after 48 hrs by ELISA; type: functional
T-cell = assay: Inhibition of activation of antigen stimulated mouse 2B4.11 T cells assessed as IL2 production; type: functional, cell-based

Row | SMILES | Inhibition [1] [%] | hemolysis at 0.5 h, 1000 µM [2] [%] | Inhibition [3] [%] | Papp [4] [nm/s] | Inhibition [5] [%] | Inhibition [6] [%] | Inhibition [7] [%] | Activity (T-cell)
1 | CC[C@H](C)[C@H](NC(=O)[C@H](CCCNC(=N)N)NC(=O)[C@H](CC(C)C)NC(=O)CN)C(=O)N[C@@H](CC(C)C)C(=O)N[C@@H](CC(C)C)C(=O)N[C@@H](CC(C)C)C(=O)N[C@@H](CCCCN)C(=O)N[C@H](C(=O)O)C(C)C (H-GLRILLLKV-OH) | 107 | < 2 | 74.52 | 0.42 | 102.53 | 55 | 63 | –
2 | OC[C@@H](O)[C@@H](O)[C@H](O)[C@H](O)CO [MANNITOL] | – | – | – | 5.55 | – | – | – | –
3 | CCCCCCCCCCC(N)C(=O)NCC(=O)N[C@@H](CC(C)C)C(=O)N[C@@H](CCCNC(=N)N)C(=O)N[C@H](C(=O)N[C@@H](CC(C)C)C(=O)N[C@@H](CC(C)C)C(=O)N[C@@H](CC(C)C)C(=O)N[C@@H](CCCCN)C(=O)N[C@H](C(=O)O)C(C)C)[C@@H](C)CC (stereo partly specified) (H-[ξGly(decyl)]GLRILLLKV-OH) | 105.7 | < 2 | 81.17 | 1.1 | 48.13 | 70 | 76 | Dose-dependent effect
